Experimental findings from ChEMBL document CHEMBL1137807, “A novel dimeric diterpene from Salvia prionitis” (J Nat Prod, 2001) are described below.

The source made the active and inactive calls. No cut-off for these calls is given here.

One experiment deals with HL-60. Description: Antitumor activity against human HL60 cells. It is filed as functional, cell-based.
For another experiment, the system named is Bel-7402. Description: Antitumor activity against human Bel7402 cells. The experiment is classed as functional, cell-based.

Take `CC(C)c1cc2c(c(O)c1O)[C@@]1(C)CCCC(C)(C)C1=CC2=O`: the result with HL-60 and in the experiment with Bel-7402 was Active.
As for `CC(C)C1=CC2=C[C@H]3Oc4c(c(C(C)C)cc5c4[C@]4(C)CCCC(C)(C)C4=CC5=O)O[C@]34C(C)(C)CCC[C@@]4(C)C2=C(O)C1=O`, the outcome in the experiment with HL-60 and in the experiment on Bel-7402 was inactive.
